SMILES strings stand for the structures.

Holding throughout (format): cell-based
Test [1] concerns Human umbilical vein endothelial cells. Nature of the test: Chromatin organization (GFP-H2B, H3K9me3) and histone H3/H4 acetylation. The settings on record: 3-D culture, VEGF/HGF-stimulated, blebbistatin or nocodazole. The text has this: At sites of tissue damage, inflammation or neoplasia, fibrinogen is converted into a 3-D meshwork of fibrin fibrils that serve as a structural support for endothelial cells undergoing neovascularization (Chun et al. 2006. Cell, 125: 577-591; Hiraoka et al. 1998. Cell, 95: 365-377; Schafer and Werner. 2008. Nat. Rev. Mol. Cell Biol., 9: 628-638; Zhou et al. 2008. Genes Dev., 22: 1231-1243). This process can be recapitulated in vitro by embedding serum-supplemented human endothelial cells within a 3-D fibrin gel in the presence of the pro-angiogenic factors, VEGF and HGF. Human umbilical vein endothelial cells were isolated from umbilical cords by perfusion of the umbilical vein with type 3 collagenase (Worthington, Lakewood, N.J.) and cultured in Medium-199 (Invitrogen, Carlsbad, Calif.) with 20% human serum and 50 μg/ml endothelial cell growth supplement (ECGS; BD Biosciences, Franklin Lakes, N.J.). For 3-D culture, endothelial cells were suspended in a solution of thrombin and aprotinin (Sigma, St. Louis, Mo.) and mixed 1:1 with a solution of 6 mg/ml fibrinogen (Calbiochem, Gibbstown, N.J.). Vasculogenesis was triggered by treatment with 100 ng/ml VEGF, 50 ng/ml HGF (Genentech, San Francisco, Calif.). Fibronectin fibrillogenesis was tracked in 3-D by co-culture with human fibronectin (Sigma) labeled with Alexa-594 (Invitrogen).
Yet, multi-lobed nuclei and anomalous nuclear pore complex distributions can be observed in laminopathies, a pleiotropic series of genetic disorders wherein mutations in lamin or emerin impact chromatin organization, histone modifications, and transcriptional activity (Csoka et al., 2004. Aging Cell, 3: 235-243; Dechat et al., 2008. Genes Dev, 22: 832-853; Dillon, 2008. Dev Cell, 15: 182-186; Malhas et al., 2007. J. Cell Biol., 176: 593-603; Mendjan et al., 2006. Mol. Cell, 21: 811-823; Shumaker et al., 2006. Proc. Natl. Acad. Sci. USA, 103: 8703-8708; Tang et al., 2008. J. Cell Sci., 121: 1014-1024). To determine whether VEGF/HGF-dependent changes in nuclear shape similarly affect chromatin structure/function, chromatin packaging was tracked at the single-endothelial cell level by monitoring GFP-tagged histone H2B or pericentromeric constitutive heterochromatin localization. […] heterochromatin localization was visualized by immunostaining for trimethylated lysine 9 of histone H3 (H3K9me3) (Shumaker, supra; Tang, supra).
Histone acetylation can be regulated by chromatin positioning within the nucleus (Finlan et al., 2008. PLoS Genet, 4: e1000039; Somech et al., 2005. J. Cell Sci., 118: 4017-4025). Thus, the acetylation status of histones H3 and H4 was assessed as functional markers of changes in chromatin organization. […]

Test [2] has the same test system. Nature of the test: Cytoskeletal organization (F-actin, β-tubulin, vimentin) and isometric tension/contractile force. The settings on record: 3-D culture, VEGF/HGF-stimulated, blebbistatin or nocodazole.
Protocol: VEGF/HGF-stimulated endothelial cells were treated with either (a) blebbistatin to inhibit myosin ATPase function, or (b) nocodazole to prevent microtubule assembly under 3-D culture conditions (Salpingidou et al., 2007. J. Cell Biol., 178: 897-904; Zhou et al., supra).
A further test deals with human endothelial cells. Description: Cell morphology, migration and cell number of endothelial cells in 3-D fibrin gel. Particulars: 2 days, 50 μM blebbistatin. How it is done: Endothelial cells were isolated from human umbilical cord veins by collagenase digestion and cultured in Medium 199 (Gibco) containing 20% human serum, 50 μg/ml endothelial cell growth supplement (BD Biosciences), 100 U/ml penicillin, and 100 μg/ml streptomycin (Hiraoka et al. 1998. Cell, 95(3): 365-377). […]
The effect of Fn matrix assembly, or lack thereof, on endothelial cell function during neovascularization was assessed. […]
(Chernousov et al. 1991. J. Biol. Chem., 266(17): 10851-10858; Tomasini-Johansson et al. 2001. J. Biol. Chem., 276(26): 23430-23439; Mao and Schwarzbauer. 2005. Matrix Biol., 24(6): 389-399; and Tomasini-Johansson et al. 2006. Matrix Biol., 25(5): 282-293). […] Cell number in 3-D cultures was determined by hemacytometry after dissolving gels with 2 mg/ml bacterial collagenase (Worthington) while the number of patent tubules was determined in randomly selected cross-sections. Fn matrix assembly and cell morphology were monitored by confocal laser microscopy. To examine cell migration, endothelial cells were embedded in a 100 μl fibrin gel for 2 hours, then placed within a 500 μl gel for 8 days in the presence of Del29, FUD, control IgG, or L8, after which migration from the inner gel was assessed. […]

Consider `Cc1ccc2c(c1)C(=O)C1(O)CCN(c3ccccc3)C1=N2` (stereo not shown) [blebbistatin], for which, in test [1], the chromatin distribution entry is “chromatin condensations at the nuclear periphery with increased interchromatin space”; the “levels of acetylated histones H3 and H4” value is “decreased levels”. Moreover, in test [2], the “contractile force exerted on the 3-D ECM” value is reported as “impairing”. Besides, the cell shape change result in the test with human endothelial cells is reported as “failed to undergo”.

The values above are taken from US8697081B2, “Method of modulating neovascularization” (The Regents of the University of Michigan, priority 2008, dated 2014).
